Results as given in PMC11721672, “Design, Structure–Activity Relationships, and Computational Modeling Studies of a Series of α-Helix Biased, Ultra-Short Glucagon-like Peptide-1 Receptor Agonists” (Molecules, 2024).
Read-outs that look alike come from different tables or passages of the source. Square brackets hold non-standard residues; d marks the D form. Peptide text beside a SMILES is read from it. Bip = N[C@@H](Cc1ccc(-c2ccccc2)cc1)C(=O)O; αMePhe(2-F) = C[C@](N)(Cc1ccccc1F)C(=O)O; Phe(2-F) = N[C@@H](Cc1ccccc1F)C(=O)O; Aib = CC(C)(N)C(=O)O

Target: T1, hGLP1 receptor (Homo sapiens, UniProt P43220)
T1 construct: expressed in transfected cells; host or cells: HEK (human embryonic kidney) cells co-expressing hGLP1 receptor and CRE-Luciferase
Assay: GLP-1 receptor agonism assay (HTRF cAMP, HEK cells co-expressing hGLP1 receptor and CRE-Luciferase)
Format: cell-based
Conditions: for Emax: HEK293, Table 6 potency profile; for decreased potency by Ala substitution in RXL-3000: Ala-scanning, versus RXL-3000; for decreased potency (Aib/Ala comparison): versus respective parent analog
Method: Human embryonic kidney cells (HEK) co-expressing the hGLP1 receptor and CRE-Luciferase construct were used to determine agonist potency in this assay. The cells were thawed briefly at 37 °C, transferred to a sterile tube, and re-suspended in complete media at 37 °C. Cells were centrifuged at 1000 rpm for 5 min and collected; the cells were then re-suspended in an assay buffer consisting of Dulbecco’s phosphate-buffered saline (DPBS, GIBCO) with 500 μM of the phosphodiesterase inhibitor 3-isobutyl-1-methylxanthine (IBMX). The assay medium had 0% serum albumin, as specified in Table 1, Table 2, Table 3 and Table 4. The optimal cell density was determined to be 1000 cells/well. Cells were added to wells in 384-well plates containing appropriate pre-prepared dilutions of compounds (test peptides or reference compound exendin-4), sealed, and incubated with CO2 for 30 min. Test peptide solutions were diluted from 10 mM stock solutions to be used in two separate runs (performed in triplicate) from a maximal concentration of 1.0 μM, with 11 concentrations tested for each peptide using serial 1:3 dilution from this maximal concentration. […] The agonist assay was a homogeneous time-resolved fluorescence (HTRF) assay (Cisbio). Following incubation of the cells for 30 min with test or reference peptides, 5 μL of the cAMP acceptor cAMP-d2, prepared previously as a working solution from frozen stock (1:20 dilution), was added to each well of the assay plate along with 5 μL of anti-cAMP antibody-cryptate working solution (diluted 1:20 from frozen stock). The wells were incubated for 1 h at room temperature, and fluorescence was then read at 665 and 615 nm with an Envision reader with a TRF laser. Data were saved and analyzed using Prism software (GraphPad). Concentration–response analysis was performed using 4-parameter logistic fits of the resulting data, and EC50 values were obtained for each test and reference compound.

[1] = Table 1, Phe6 modifications, 0% HSA, average of two independent experiments in triplicate (RXL-3039 tested once), read-out: cAMP EC50
[2] = Table 2, Ala-scanning, 0% HSA, >1000 nM = out of range, read-out: cAMP EC50

T1 sequence (P43220 24-463): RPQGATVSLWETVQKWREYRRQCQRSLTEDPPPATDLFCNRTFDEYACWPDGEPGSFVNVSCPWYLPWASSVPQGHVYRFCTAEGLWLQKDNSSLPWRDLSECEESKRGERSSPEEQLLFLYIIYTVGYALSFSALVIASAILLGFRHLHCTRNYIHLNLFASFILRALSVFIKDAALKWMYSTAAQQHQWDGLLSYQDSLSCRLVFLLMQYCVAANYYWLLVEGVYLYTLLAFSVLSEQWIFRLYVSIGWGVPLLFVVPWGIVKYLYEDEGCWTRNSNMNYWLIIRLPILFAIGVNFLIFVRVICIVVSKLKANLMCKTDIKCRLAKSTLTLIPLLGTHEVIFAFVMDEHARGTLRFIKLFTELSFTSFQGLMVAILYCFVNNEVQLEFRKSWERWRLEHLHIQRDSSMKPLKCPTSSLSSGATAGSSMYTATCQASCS

SMILES	Emax	pEC50 (Table 4, Aib-scan peptides, 0% HSA)	dpEC50 (contribution of Cα-methylation) (dpEC50 = pEC50 (Aib) − pEC50 (Ala) − 0.97, Aib peptide versus the Ala peptide of the same line, 0% HSA)	EC50 [1]	decreased potency by Ala substitution in RXL-3000	EC50 [2]	decreased potency (Aib/Ala comparison)	EC50 (Table 4, Ala-scan peptides, 0% HSA, read-out: pEC50 (converted))
C[C@@H](O)[C@H](NC(=O)CNC(=O)C(C)(C)NC(=O)C(C)(C)NC(=O)[C@@H](N)Cc1c[nH]cn1)C(=O)N[C@@](C)(Cc1ccccc1F)C(=O)N[C@H](C(=O)N[C@@H](CO)C(=O)N[C@@H](CC(=O)O)C(=O)N[C@@H](Cc1ccc(-c2ccccc2)cc1)C(=O)N[C@@H](Cc1ccc(-c2ccccc2)cc1)C(N)=O)[C@@H](C)O [RXL-3031, His-Aib-Aib-Gly-Thr-α-Me-Phe(2-F)-Thr-Ser-Asp-Bip-Bip-NH2] (H-H[Aib][Aib]GT[αMePhe(2-F)]TSD[Bip][Bip]-NH2)	121%	8.31	−1.13	–	–	–	–	–
C[C@@H](O)[C@H](NC(=O)CNC(=O)[C@H](CCC(=O)O)NC(=O)C(C)(C)NC(=O)[C@@H](N)Cc1c[nH]cn1)C(=O)N[C@H](Cc1ccccc1)C(=O)N[C@H](C(=O)N[C@@H](CO)C(=O)N[C@@H](CC(=O)O)C(=O)N[C@@H](Cc1ccc(-c2ccccc2)cc1)C(=O)N[C@@H](Cc1ccc(-c2ccccc2)cc1)C(N)=O)[C@@H](C)O [RXL-3022, His-Aib-Glu-Gly-Thr-D-Phe-Thr-Ser-Asp-Bip-Bip-NH2]	101%	–	–	23.2 nM	–	–	–	–
C[C@H](NC(=O)[C@H](Cc1ccc(-c2ccccc2)cc1)NC(=O)[C@H](CC(=O)O)NC(=O)[C@H](CO)NC(=O)[C@@H](NC(=O)[C@H](Cc1ccccc1F)NC(=O)[C@@H](NC(=O)CNC(=O)[C@H](CCC(=O)O)NC(=O)C(C)(C)NC(=O)[C@@H](N)Cc1c[nH]cn1)[C@@H](C)O)[C@@H](C)O)C(N)=O [RXL-3009, His-Aib-Glu-Gly-Thr-Phe(2-F)-Thr-Ser-Asp-Bip-Ala-NH2]	43.2%	–	–	–	> 1000 fold	> 1000 nM	10,000 fold	–
C[C@@H](O)[C@H](NC(=O)CNC(=O)[C@H](CCC(=O)O)NC(=O)C(C)(C)NC(=O)[C@@H](N)Cc1c[nH]cn1)C(=O)N[C@@H](Cc1cccc(C(F)(F)F)c1)C(=O)N[C@H](C(=O)N[C@@H](CO)C(=O)N[C@@H](CC(=O)O)C(=O)N[C@@H](Cc1ccc(-c2ccccc2)cc1)C(=O)N[C@@H](Cc1ccc(-c2ccccc2)cc1)C(N)=O)[C@@H](C)O [RXL-3016, His-Aib-Glu-Gly-Thr-Phe(3-CF3)-Thr-Ser-Asp-Bip-Bip-NH2]	109%	–	–	13.9 nM	–	–	–	–
C[C@H](NC(=O)[C@@H](N)Cc1c[nH]cn1)C(=O)N[C@@H](CCC(=O)O)C(=O)NCC(=O)N[C@H](C(=O)N[C@@H](Cc1ccccc1F)C(=O)N[C@H](C(=O)N[C@@H](CO)C(=O)N[C@@H](CC(=O)O)C(=O)N[C@@H](Cc1ccc(-c2ccccc2)cc1)C(=O)N[C@@H](Cc1ccc(-c2ccccc2)cc1)C(N)=O)[C@@H](C)O)[C@@H](C)O [RXL-3002, His-Ala-Glu-Gly-Thr-Phe(2-F)-Thr-Ser-Asp-Bip-Bip-NH2]	102%	–	–	–	–	0.2 nM	–	–
C[C@H](NC(=O)[C@H](Cc1ccccc1F)NC(=O)[C@@H](NC(=O)CNC(=O)[C@H](CCC(=O)O)NC(=O)C(C)(C)NC(=O)[C@@H](N)Cc1c[nH]cn1)[C@@H](C)O)C(=O)N[C@@H](CO)C(=O)N[C@@H](CC(=O)O)C(=O)N[C@@H](Cc1ccc(-c2ccccc2)cc1)C(=O)N[C@@H](Cc1ccc(-c2ccccc2)cc1)C(N)=O [RXL-3005, His-Aib-Glu-Gly-Thr-Phe(2-F)-Ala-Ser-Asp-Bip-Bip-NH2] (H-H[Aib]EGT[Phe(2-F)]ASD[Bip][Bip]-NH2)	102%	–	–	–	–	47.5 nM	–	21.4 nM
C[C@H](NC(=O)[C@H](CC(=O)O)NC(=O)[C@H](CO)NC(=O)[C@@H](NC(=O)[C@H](Cc1ccccc1F)NC(=O)[C@@H](NC(=O)CNC(=O)[C@H](CCC(=O)O)NC(=O)C(C)(C)NC(=O)[C@@H](N)Cc1c[nH]cn1)[C@@H](C)O)[C@@H](C)O)C(=O)N[C@@H](Cc1ccc(-c2ccccc2)cc1)C(N)=O [RXL-3008, His-Aib-Glu-Gly-Thr-Phe(2-F)-Thr-Ser-Asp-Ala-Bip-NH2] (H-H[Aib]EGT[Phe(2-F)]TSDA[Bip]-NH2)	43.6%	–	–	–	> 1000 fold	> 1000 nM	> 10,000 fold	–
